From article PMC8007718, “A prostate-specific membrane antigen (PSMA)-targeted prodrug with a favorable in vivo toxicity profile” (Scientific Reports, 2021) come the findings set out here.

The target in the data set is T1, cathepsin B (Homo sapiens, UniProt P07858).
T1 construct: gene CTSB; recombinant cathepsin B
Description: cleavage by recombinant cathepsin B followed by HPLC (MMAE release). The data set is classed as biochemical.

*1 amine or outer side, *2 acyl side, *3 side chain or, on linkers, in order; H or OH if unused. Where a SMILES comes first, the peptide text is derived from it. [ ]: non-standard residue; d: D form. The star is where a group is joined. X1 = O=C(O)CC[C@H](NC(=O)N[C@@H](CCCCNC(=O)CCCCCCC(=O)*)C(=O)O)C(=O)O; Dolaproine = CO[C@@H]([C@@H]1CCCN1)[C@@H](C)C(=O)O; Dil = CC[C@H](C)[C@H](NC)[C@@H](CC(=O)O)OC; PABC = O=C(OCc1ccc(N[*:1])cc1)[*:2]; X2 = C[C@@H](N*)[C@@H](O)c1ccccc1; Cit = NC(=O)NCCC[C@H](N)C(=O)O; NMeV = CN[C@H](C(=O)O)C(C)C

Consider `CC[C@H](C)[C@@H]([C@@H](CC(=O)N1CCC[C@H]1[C@H](OC)[C@@H](C)C(=O)N[C@H](C)[C@@H](O)c1ccccc1)OC)N(C)C(=O)[C@@H](NC(=O)[C@H](C(C)C)N(C)C(=O)OCc1ccc(NC(=O)[C@H](CCCNC(N)=O)NC(=O)[C@@H](NC(=O)CCCCCCC(=O)NCCCC[C@H](NC(=O)N[C@@H](CCC(=O)O)C(=O)O)C(=O)O)C(C)C)cc1)C(C)C` [SBPD-1, (6S,9S,24S,28S)-1-amino-6-((4-((5S,8S,11S)-11-((S)-sec-butyl)-12-(2-((S)-2-((1R,2R)-3-(((1S,2R)-1-hydroxy-1-phenylpropan-2-yl)amino)-1-methoxy-2-methyl-3-oxopropyl)pyrrolidin-1-yl)-2-oxoethyl)-5,8-diisopropyl-4,10-dimethyl-3,6,9-trioxo-2,13-dioxa-4,7,10-triazatetradecyl)phenyl)carbamoyl)-9-isopropyl-1,8,11,18,26-pentaoxo-2,7,10,19,25,27-hexaazatriacontane-24,28,30-tricarboxylic acid] (X1-V[Cit][PABC][NMeV]V[Dil][Dolaproine]-X2), for which the metabolised at 3 h came to 80%.
